{
  "source": "paper PMC3776002",
  "about": "(International journal of infectious diseases : IJID : …, 2013)",
  "test": "Steady-state plasma LPV pharmacokinetics with and without African potato",
  "type": "in vivo, human",
  "conditions": "for CLF (apparent clearance), arithmetic mean (SD): LPV; for AUC: AUCτ; for concentration at 12 h: Ctrough",
  "key": {"[1]": {"conditions": "plasma LPV, steady state, day 21, LPV/r plus African potato, n = 16"}, "[2]": {"conditions": "plasma LPV, expressed as a percentage of the GM of LPV/r alone, n = 16"}},
  "data": [
    {"smiles": "Cc1cccc(C)c1OCC(=O)N[C@@H](Cc1ccccc1)[C@@H](O)C[C@H](Cc1ccccc1)NC(=O)[C@H](C(C)C)N1CCCNC1=O", "note": "[LPV, Lopinavir]", "values": [
      {"measurement": "CLF (apparent clearance), arithmetic mean (SD)", "setting": "steady state, day 14, LPV/r alone, n = 16", "result": "4.61 (1.56) l/h"},
      {"measurement": "CLF (apparent clearance), arithmetic mean (SD)", "setting": "steady state, day 21, LPV/r plus African potato, n = 16", "result": "4.64 (1.32) l/h"},
      {"measurement": "Cmax", "setting": "human, plasma, oral", "result": 10100, "unit": "ng/mL"},
      {"measurement": "AUC", "setting": "human, plasma, oral, arithmetic mean (SD), plasma LPV, steady state, day 14, LPV/r 400/100 mg twice daily alone, n = 16", "result": 94400, "unit": "ng·h/mL"},
      {"measurement": "AUC", "setting": "human, plasma, oral, arithmetic mean (SD), plasma LPV, steady state, day 21, LPV/r 400/100 mg twice daily plus African potato four capsules once daily for 7 days, n = 16", "result": 93200, "unit": "ng·h/mL"},
      {"measurement": "concentration at 12 h", "setting": "human, plasma, oral, arithmetic mean (SD), plasma LPV, steady state, day 14, LPV/r alone, n = 16", "result": 4850, "unit": "ng/mL"},
      {"measurement": "concentration at 12 h", "setting": "human, plasma, oral, arithmetic mean (SD), plasma LPV, steady state, day 21, LPV/r plus African potato, n = 16", "result": 4900, "unit": "ng/mL"},
      {"measurement": "concentration at 12 h", "setting": "human, plasma, oral, geometric mean, plasma LPV, steady state, day 14, LPV/r alone, n = 16", "result": 4130, "unit": "ng/mL"},
      {"measurement": "concentration at 12 h", "setting": "human, plasma, oral, geometric mean, plasma LPV, steady state, day 21, LPV/r plus African potato, n = 16", "result": 4380, "unit": "ng/mL"},
      {"measurement": "AUCτ, geometric mean", "setting": "plasma LPV, steady state, day 14, LPV/r alone, n = 16", "result": 90780, "unit": "ng·h/mL"},
      {"measurement": "AUCτ, geometric mean", "setting": "[1]", "result": 89660, "unit": "ng·h/mL"},
      {"measurement": "Cmax, arithmetic mean (SD)", "setting": "[1]", "result": "10.18 (2.25) μg/ml"},
      {"measurement": "AUCτ, PE (point estimate of the ratio of geometric means of LPV/r plus African potato and LPV/r)", "setting": "[2]", "result": 98.77, "unit": "%"},
      {"measurement": "Cmax, PE (point estimate of the ratio of geometric means of LPV/r plus African potato and LPV/r)", "setting": "[2]", "result": 100.90, "unit": "%"},
      {"measurement": "Ctrough, PE (point estimate of the ratio of geometric means of LPV/r plus African potato and LPV/r)", "setting": "[2]", "result": 105.98, "unit": "%"}
    ]}
  ]
}
